Source: ChEMBL document CHEMBL1862790, “Optimisation of fenarimol series for the treatment of Chagas disease”
Several values for one entry are separate records, joined by “and”; a condition that tells them apart may be missing. Equal values may be shown once.

Assays:
Trypanosoma cruzi [1] = test: microbe, parasite or virus in culture; type: functional, organism-based, Tulahuen LacZ, Clone C4
[2] = (§1) DNDI: Cytotoxicity against L-6 rat myoblasts from skeletal muscle cells; details: L6 rat skeletal muscle myoblast cells
L6 = test: as §1; details: L6 rat skeletal muscle myoblast cells
Trypanosoma cruzi [3] = test: microbe, parasite or virus in culture; type: functional, Tulahuen LacZ, Clone C4
[4] = Trypanosoma cruzi, Tulahuen LacZ, Clone C4

Compound | IC50 (Trypanosoma cruzi [1]) | IC50 (Trypanosoma cruzi [1]; [4]) [nM] | IC90 (Trypanosoma cruzi [3]; [4]) [nM] | IC90 (Trypanosoma cruzi [3]) | IC50 ([2]; IC50) [nM] | IC50 (L6) [nM] | IC50 [2] [nM]
OC(c1ccc(C(F)(F)F)cc1)(c1ccc(C(F)(F)F)cc1)c1cccnc1 | – | 14.9 | 38 | – | – | 50600 | –
COc1cccc(C(O)(c2ccc(Cl)cc2)c2cccnc2)c1 (stereo not drawn) | – | 61 | 315 | – | – | 85600 | –
OC(c1ccc(Cl)cc1)(c1cccnc1)c1ccccc1Br (stereo not drawn) | – | 76 | 172 | – | – | 55200 | –
OC(c1ccc(Cl)cc1)(c1cccnc1)c1ccc(F)cc1F (stereo not drawn) | – | 16.4 | 29 | – | – | 70200 | –
COc1ccc(C(O)(c2ccc(Cl)cc2)c2cccnc2)cc1 (stereo not drawn) | – | 40 | 180 | – | – | 68100 | –
O=S(=O)(c1ccccc1)N1CCN(C(c2ccc(Cl)cc2)c2cccnc2)CC1 (stereo not drawn) | – | 8.5 | 39 | – | – | 42700 | –
Cc1ccc(C(O)(c2ccc(Cl)cc2)c2cccnc2)cc1 (stereo not drawn) | – | 17 | 60 | – | – | 61200 | –
CC(C)CCON=C(Cc1cccnc1)c1ccc(Cl)cc1Cl | – | – | – | – | 61000 | 58700 | –
OC(c1ccc(Br)cc1)(c1ccc(C(F)(F)F)cc1)c1cccnc1 (stereo not drawn) | – | 20 | 30 | – | – | 54700 | –
O=C(Oc1ccccc1)N1CCN(C(c2ccc(Cl)cc2)c2cccnc2)CC1 (stereo not drawn) | – | 8 | 32 | – | – | 55700 | –
N#Cc1cccc(N2CCC(NC(c3cccnc3)c3ccc(Cl)cc3F)CC2)c1 (stereo not drawn) | 12.5 nM | 21 | 37 | 34 nM | 55400 | 32200 | –
OC(c1ccc(Cl)cc1)(c1cccnc1)c1ccccc1Cl (stereo not drawn) | 210 nM | 270 | – | – | – | 61300 | 60000
Cc1ccc(C(O)(c2ccc(OC(C)C)cc2)c2cccnc2)c(F)c1 (stereo not drawn) | – | 3.2 | 13 | – | – | 62600 | –
CC(C)Oc1ccc(C(O)(c2ccc(Cl)cc2)c2cccnc2)cc1 (stereo not drawn) | 8.2 nM and 2 nM | – | – | 18 nM and 6 nM | – | 56600 | 52000
Fc1cc(Cl)ccc1C(NC1CCN(c2ccc(C(F)(F)F)cc2)CC1)c1cccnc1 (stereo not drawn) | 11 nM and 10.5 nM | 9.5 | 29.5 | 37.5 nM and 34 nM | 55700 | 52400 | –
CC(C)Oc1ccc(C(O)(c2ccc(C(F)(F)F)cc2)c2cccnc2)cc1 (stereo not drawn) | – | 3.73 | 7 | – | – | 47600 | –
Clc1ccc(C(c2cccnc2)c2ccccc2Cl)cc1 (stereo not drawn) | – | 230 | 2570 | – | – | 62600 | –
CC(C)(C)OC(=O)N1CCN(C(c2ccc(C(F)(F)F)cc2)c2cccnc2)CC1 (stereo not drawn) | – | 17 | 54 | – | – | 56200 | –
CC(C)Oc1ccc(C(O)(c2cccnc2)c2ccc(Cl)cc2F)cc1 (stereo not drawn) | – | 1.3 | 3 | – | – | 56000 | –
O=C(Oc1ccccc1)N1CCN(C(c2cccnc2)c2ccc(Cl)cc2F)CC1 (stereo not drawn) | – | 4.5 | 12 | – | – | 59100 | –
OC(c1cccnc1)(c1ccc(Cl)cc1F)c1ccc(Cl)cc1F | – | 16 | 36 | – | – | 56300 | –
OC(c1ccc(Cl)cc1)(c1cccnc1)c1ccc(C(F)(F)F)cc1F (stereo not drawn) | – | 21 | 70 | – | – | 57400 | –
OC(c1ccc(Cl)cc1)(c1cccnc1)c1cccc(C(F)(F)F)c1 (stereo not drawn) | – | 67 | 162 | – | – | 60400 | –
OC(c1ccc(Cl)cc1)(c1ccc(C(F)(F)F)cc1)c1cccnc1 (stereo not drawn) | – | 8.2 | 30 | – | – | 56400 | –
OC(c1ccc(Cl)cc1)(c1cccnc1)c1cccc(Br)c1 (stereo not drawn) | – | 54 | 80 | – | – | 54100 | –
OC(c1ccc(Cl)cc1)(c1ccc(Br)cc1)c1cccnc1 (stereo not drawn) | – | 31 | 79 | – | – | 57000 | –
CC(C)Oc1ccc(C(O)(c2ccc(OC(C)C)cc2)c2cccnc2)cc1 | – | 16 | 25 | – | – | 61400 | –

More lines, main results first:

IC50 (Trypanosoma cruzi [1]) | IC50 (Trypanosoma cruzi [1]; [4]) [nM] | IC90 (Trypanosoma cruzi [3]; [4]) [nM] | IC90 (Trypanosoma cruzi [3]) | Compound | IC50 ([2]; IC50) [nM] | IC50 (L6) [nM] | IC50 [2] [nM]
210 nM and 470 nM and 294 nM | – | – | – | CON=C(Cc1cccnc1)c1ccc(Cl)cc1Cl | > 100000 | 81000 | –
– | 70 | 220 | – | O=C(c1ccccc1)N1CCN(C(c2cccnc2)c2ccc(Cl)cc2F)CC1 (stereo not drawn) | – | 68600 | –
– | 24 | 420 | – | CC(C)(C)OC(=O)N1CCN(C(c2cncnc2)c2ccc(Cl)cc2F)CC1 (stereo not drawn) | – | 63900 | –
8 nM and 16.5 nM | – | 24 | 31.5 nM | Fc1cc(Cl)ccc1C(NC1CCN(c2ccc(C(F)(F)F)cc2F)CC1)c1cccnc1 (stereo not drawn) | 51500 | 53000 | –
– | 20 | 110 | – | OC(c1ccc(C(F)(F)F)cc1)(c1cccnc1)c1cc2ccccc2s1 (stereo not drawn) | – | 58700 | –
– | 28 | 200 | – | O=C(C1CCCCC1)N1CCN(C(c2cccnc2)c2ccc(Cl)cc2F)CC1 (stereo not drawn) | – | 61700 | –
– | 17 | 88 | – | CC(C)C(=O)Nc1ncc(C(O)(c2ccc(Cl)cc2)c2cccnc2)s1 (stereo not drawn) | – | 56600 | –
– | 23.5 | 68.5 | – | CC(C)(C)C(=O)N1CCN(C(c2cccnc2)c2ccc(C(F)(F)F)cc2F)CC1 (stereo not drawn) | – | 72900 | –
– | 240 | 420 | – | COc1ccccc1N1CCN(C(c2ccc(C(F)(F)F)cc2)c2cnccn2)CC1 (stereo not drawn) | – | 61700 | –
– | 10 | 35 | – | O=S(=O)(C1CCCCC1)N1CCN(C(c2ccc(Cl)cc2)c2cccnc2)CC1 (stereo not drawn) | – | 55800 | –
– | 78 | 270 | – | Fc1cc(Cl)ccc1C(c1cncnc1)N1CCN(c2ccccc2)CC1 (stereo not drawn) | – | 62700 | –
– | 18 | 40 | – | Fc1cc(Cl)ccc1C(c1cccnc1)N1CCN(c2ccccc2)CC1 (stereo not drawn) | – | 57600 | –
19 nM and 46 nM | – | 48 | 90 nM | FC(F)(F)c1ccc(N2CCC(NC(c3ccc(Cl)cc3)c3cccnc3)CC2)nc1 (stereo not drawn) | 55300 | 62500 | –
250 nM | – | – | 860 nM | O=C(C1CCCCC1)N1CCC(NC(c2ccc(C(F)(F)F)cc2)c2cnccn2)CC1 (stereo not drawn) | – | 92400 | –
– | 19 | 88 | – | CC(C)(C)C(=O)N1CCN(C(c2cccnc2)c2ccc(Cl)cc2F)CC1 (stereo not drawn) | – | 60300 | –
– | 20 | 94 | – | CC(C)(C)OC(=O)N1CCN(C(c2cccnc2)c2ccc(Cl)cc2F)CC1 (stereo not drawn) | – | 43500 | –
– | 606 | 1320 | – | CC(C)CNC(c1ccc(Cl)cc1)(c1cccnc1)c1ccccc1Cl (stereo not drawn) | – | 59200 | –
– | 6.5 | 16 | – | CC(C)c1ccc(NC(=O)N2CCN(C(c3cncnc3)c3ccc(Cl)cc3F)CC2)cc1 (stereo not drawn) | – | 61900 | –
– | 144 | 460 | – | OC(c1ccc(Cl)cc1)(c1ccc(Br)cc1)c1cncnc1 (stereo not drawn) | – | 58700 | –
– | 16.5 | 33 | – | Cc1noc(N2CCN(C(c3cccnc3)c3ccc(C(F)(F)F)cc3F)CC2)n1 (stereo not drawn) | – | 51200 | –
– | 65 | 190 | – | COc1ccccc1N1CCN(C(c2cncnc2)c2ccc(Cl)cc2F)CC1 (stereo not drawn) | – | 59800 | –

IC50 (Trypanosoma cruzi [1]) | IC50 (Trypanosoma cruzi [1]; [4]) [nM] | IC90 (Trypanosoma cruzi [3]; [4]) [nM] | IC90 (Trypanosoma cruzi [3]) | Compound | IC50 ([2]; IC50) [nM] | IC50 (L6) [nM] | IC50 [2] [nM]
– | 26 | 92 | – | Fc1cc(Cl)ccc1C(c1cccnc1)N1CCN(c2ncccn2)CC1 (stereo not drawn) | – | 59000 | –
– | 28 | 90 | – | COc1ccccc1N1CCN(C(c2ccc(OC(C)C)cc2)c2cccnc2)CC1 (stereo not drawn) | – | 77400 | –
8.5 nM | 16.5 | 24 | 37 nM | O=C(NC1CCN(C(c2ccc(C(F)(F)F)cc2)c2cccnc2)CC1)c1c(F)cccc1F (stereo not drawn) | 56700 | > 100000 | –
9.5 nM | – | – | 29 nM | FC(F)(F)c1ccc(C(NC2CCN(c3nccs3)CC2)c2cccnc2)cc1 (stereo not drawn) | – | 54900 | –
– | 20 | 42 | – | COc1ccccc1N1CCN(C(c2ccc(Cl)cc2)c2cccnc2)CC1 (stereo not drawn) | – | 61100 | –
– | 27.5 | 82.5 | – | CS(=O)(=O)N1CCN(C(c2cccnc2)c2ccc(C(F)(F)F)cc2F)CC1 (stereo not drawn) | – | 76800 | –
– | 6 | 28 | – | CN(C)c1ccc(C(O)(c2ccc(C(F)(F)F)cc2)c2cccnc2)cc1 (stereo not drawn) | – | 59100 | –
– | 9 | 34 | – | O=C(Nc1ccccc1)N1CCN(C(c2ccc(Cl)cc2)c2cccnc2)CC1 (stereo not drawn) | – | 67200 | –
– | 7.7 | > 10 | – | CC(C)Oc1ncc(C(O)(c2cccnc2)c2ccc(Cl)cc2F)cn1 (stereo not drawn) | – | 89500 | –
– | 6.2 | 24 | – | O=C(Nc1ccccc1)N1CCN(C(c2cccnc2)c2ccc(Cl)cc2F)CC1 (stereo not drawn) | – | 45100 | –
– | 90 | 5050 | – | NC(c1ccc(Cl)cc1)(c1cccnc1)c1ccccc1Cl (stereo not drawn) | – | 76000 | –
– | 50 | 220 | – | N#CC(c1ccc(Cl)cc1)(c1cccnc1)c1ccccc1Cl (stereo not drawn) | – | 56800 | –
– | 10 | 30 | – | O=C(Nc1ccc(Cl)cc1)N1CCN(C(c2cncnc2)c2ccc(Cl)cc2F)CC1 (stereo not drawn) | – | 33600 | –
– | 12 | 57 | – | CC(C)c1ccc(S(=O)(=O)N2CCN(C(c3ccc(Cl)cc3)c3cccnc3)CC2)cc1 (stereo not drawn) | – | 80200 | –
– | 68 | 160 | – | O=C(c1ccccc1)N1CCN(C(c2ccc(Cl)cc2)c2cccnc2)CC1 (stereo not drawn) | – | 61400 | –
– | 30 | 127 | – | CC(C)(C)C(=O)N1CCN(C(c2ccc(C(F)(F)F)cc2)c2cccnc2)CC1 (stereo not drawn) | – | 58600 | –
– | 682 | 6780 | – | Clc1ccc(C(c2ccc(Cl)cc2)c2cncnc2)cc1 | – | 70100 | –
– | 22 | 65 | – | O=C(Nc1ccc(Cl)cc1)N1CCN(C(c2ccc(Cl)cc2)c2cncnc2)CC1 (stereo not drawn) | – | 58800 | –
– | 34 | 84 | – | Clc1ccc(C(c2cccnc2)N2CCN(c3ccccc3)CC2)cc1 (stereo not drawn) | – | 67400 | –
– | 24 | 97 | – | O=S(=O)(c1ccc(Cl)cc1)N1CCN(C(c2ccc(Cl)cc2)c2cccnc2)CC1 (stereo not drawn) | – | 23000 | –
